Inconclusive results are not listed.
System: B6C3F1 mice, colon carcinoma 38 s.c., T/C
Assay: NCI In Vivo Anticancer Drug Screen. Data for tumor model Colon Carcinoma 38 (subcutaneous) in B6C3F1 mice
Details: endpoint: median tumor weight (est.), schedule: Q07DX002 (ip), higher = larger tumour
Method: The antitumor activity of compounds was measured in mice bearing transplantable tumors. Survival or tumor size were measured and the results are expressed as the measurement made in the treated group (T) divided by the measurement made in the vehicle treated control group (C). The tumor model used in this assay is Colon Carcinoma 38 (subcutaneous) in B6C3F1 mice

[1] = dose: 100.0 mg/kg/injection, vehicle: Klucel (hydroxypropylcellulose) (HPC)
[2] = dose: 200.0 mg/kg/injection, vehicle: Klucel (hydroxypropylcellulose) (HPC)

Cc1cc(N/N=C/c2ccccn2)nc2ccccc12
T/C (dose: 50.0 mg/kg/injection, vehicle: Klucel (hydroxypropylcellulose) (HPC)): 65 % of control
T/C [1]: 90 % of control
T/C [2]: 74 % of control

C=C(C(=O)O)C(N)C(=O)O (stereo not given)
T/C (dose: 150.0 mg/kg/injection, vehicle: saline): 56 % of control
T/C (dose: 300.0 mg/kg/injection, vehicle: saline): 94 % of control

CCOC(=O)c1c[nH]c2oc(/C=N/N3CC(CN4CCOCC4)OC3=O)cc2c1=O (stereo not given)
T/C (dose: 150.0 mg/kg/injection, vehicle: other): 83 % of control
T/C (dose: 300.0 mg/kg/injection, vehicle: other): 56 % of control
T/C (dose: 600.0 mg/kg/injection, vehicle: other): 29 % of control

CSc1ncc2ncn(C3OC(CO)C(O)C3O)c2n1 (stereo not given)
T/C [1]: 120 % of control
T/C [2]: 78 % of control
T/C (dose: 400.0 mg/kg/injection, vehicle: Klucel (hydroxypropylcellulose) (HPC)): 120 % of control

CCCCCCCCCCCCCCCCCC(=O)Nc1ccn(C2OC(CO)C(O)C2O)c(=O)n1 (stereo not given)
T/C (dose: 12.5 mg/kg/injection, vehicle: saline with Tween-80): 64 % of control
T/C (dose: 25.0 mg/kg/injection, vehicle: saline with Tween-80): 40 % of control
T/C (dose: 50.0 mg/kg/injection, vehicle: saline with Tween-80): 49 % of control
T/C (dose: 100.0 mg/kg/injection, vehicle: saline with Tween-80): 23 % of control

Source: PubChem BioAssay AID214 (DTP/NCI, 2004)
